Read-outs that look alike come from different tables or passages of the source.
Legend:
[1] = system: A549 human lung adenocarcinoma cells; settings: for A549 cell viability: 100 µM
Procedure: (§2) The dissolved compounds were then manually dispensed into deep 96-well plates, sealed, and stored at −80 °C until the day of the experiment. For the in vitro antiproliferative activity screening, the compounds were thawed at room temperature, protected from light, and the aliquots were diluted in complete cell culture media to achieve a final concentration of 100 µM and used for the in vitro assays.
(§3) All cells were cultivated in Dulbecco’s Modified Eagle Medium/Nutrient Mixture F-12 (DMEM/F-12) (Gibco, Waltham, MA, USA), 10% fetal bovine serum (FBS) (Gibco, Waltham, MA, USA), 100 U/mL penicillin, and 100 μg/mL streptomycin (P/S) (Gibco, Waltham, MA, USA). Culturing conditions were maintained at 37 °C with a humidified atmosphere containing 5% CO2. The culture medium was refreshed every 2–3 days, and cells were passaged upon reaching 70–80% confluence.
(§4) The in vitro inhibitory effects of the compounds were assessed using the MTT assay [40, 41, 42, 43, 44]. Briefly, cells were plated in 96-well plates at a density of 1 × 10^4 cells per well. After allowing the cells to adhere overnight at 37 °C in 5% CO2, they were treated with compounds at concentration of 100 µM in triplicate. Following a 20 h incubation, MTT reagent was added, and the cells were further incubated for 4 h. The resulting formazan was solubilized in anhydrous DMSO, and absorbance was measured at 570 nm using a microplate reader. Cell viability was calculated using the following formula: ([AE − AB]/[AC − AB]) × 100%, where AE, AC, and AB represent the absorbance values of experimental samples, untreated controls, and blank wells, respectively. Data analysis was performed using GraphPad Prism or QuickCalcs (2.0 version).
(§5) The IC50 values, defined as the concentration of compound required to reduce cell viability by 50%, were determined using a dose–response curve. The data were fitted to a nonlinear regression model (GraphPad Prism version 9.0, GraphPad Software, San Diego, CA, USA) to calculate the IC50 values for each compound tested in triplicate.

[2] = system: HEK293 human embryonic kidney cells; assay: MTT cytotoxicity in non-cancerous HEK293 cells; assay type: cell-based; settings: 24 h
Procedure: as §3, §4, §5

[3] = system: A549 human lung adenocarcinoma cells; assay: cells; settings: A549, 24 h; for viability at 100 µM: read-out: A549 cell viability
Procedure: as §2, §3, §4, §5

[4] = system: H69 human lung carcinoma cells; assay: MTT cell viability assay in H69 cells; assay type: cell-based; settings: NCI-H69, 24 h, normalized to untreated control
Procedure: as §2
(§6) The A549 non-small cell human lung carcinoma cells (ATCC CCL-185), H69 (HTB-19), H69AR (CRL-11351) were obtained from the American Type Culture Collection (Rockville, MD, USA). […] All cells were cultivated in Dulbecco’s Modified Eagle Medium/Nutrient Mixture F-12 (DMEM/F-12) (Gibco, Waltham, MA, USA), 10% fetal bovine serum (FBS) (Gibco, Waltham, MA, USA), 100 U/mL penicillin, and 100 μg/mL streptomycin (P/S) (Gibco, Waltham, MA, USA). Culturing conditions were maintained at 37 °C with a humidified atmosphere containing 5% CO2. The culture medium was refreshed every 2–3 days, and cells were passaged upon reaching 70–80% confluence.
as §4

[5] = system: H69AR cells; assay: MTT cell viability assay in anthracycline-resistant H69AR cells; assay type: cell-based; settings: Homo sapiens, 24 h, normalized to untreated control
Procedure: as §2, §6, §4

[6] = system: A549 agarose-based spheroids; assay: LDH release cytotoxicity assay in A549 3D spheroids; assay type: cell-based, human; settings: 100 µM, 24 h
Procedure: (§1) A549 tumor spheroids were generated using an agarose-based technique with modifications. A549 cells were plated at a density of 2.5 × 10^5 cells/well in 96-well plates pre-coated with 50 µL of 1% agarose in Dulbecco’s Phosphate-Buffered Saline (DPBS). The plates were incubated for 48 h to allow spheroid formation. After 48 h, the spheroids were treated with 100 µM of compounds dissolved in DMEM/F12 supplemented with 10% FBS and 0.25% DMSO for 24 h.
A549 tumor spheroids were generated in 96-well plates pre-coated with 50 µL of 1% agarose in Dulbecco’s Phosphate-Buffered Saline (DPBS), as described previously. After 48 h of spheroid formation, the spheroids were treated with compounds dissolved in DMEM/F12 supplemented with 10% FBS and 0.25% DMSO. After a 24 h incubation, spheroid-conditioned media were collected by centrifuging the plates at 1000× g for 2 min to remove the spheroids. Then, 50 µL of the supernatant was transferred to a new 96-well plate and mixed with LDH assay reagent (Pierce LDH Cytotoxicity Assay Kit, Thermo Fisher Scientific, Waltham, MA, USA) according to the manufacturer’s instructions. A commercial maximum LDH control was used to normalize the results. The percentage of LDH release was calculated based on the absorbance readings, using the formula: (sample absorbance − blank absorbance)/(maximum control absorbance − blank absorbance) × 100%.

[7] = system: A549 agarose-based spheroids; assay: AO/PI staining of A549 spheroids; assay type: cell-based, human; settings: 100 µM, 24 h
Procedure: as §1
After treatment with compounds, spheroids were incubated with 5 µg/mL acridine orange and 5 µg/mL propidium iodide for 30 min at 37 °C in a humidified incubator. Following incubation, the spheroids were washed twice with DPBS to remove excess stain. The stained spheroids were then visualized using the EVOS cell imaging system (Thermo Fisher Scientific, Waltham, MA, USA). The fluorescent images were captured, and the viability of the spheroids was assessed based on the differential staining patterns, with live cells showing green fluorescence (acridine orange) and dead cells displaying red fluorescence (propidium iodide).

| Compound | viability at 100 µM [3] [%] | IC50 ([2]; Homo sapiens) [µM] | IC50 [3] [µM] | other results |
| --- | --- | --- | --- | --- |
| 3,3′-{[(Phenylmethylene)bis(4-phenylthiazole-2,5-diyl)]bis[(4-acetylphenyl)azanediyl]}dipropionic acid [Compound 13] | – | – | – | A549 cell viability [1]: 57.6% |
| N.N.[Cl][Pt][Cl] [CP, cisplatin, reference compound] | – | – | – | IC50 [2]: 5.57 µM; IC50 ([1]; A549 cells, 24 h, MTT): 11.7 µM |
| CC(=O)c1ccc(N(CCC(=O)O)c2nc(-c3ccccc3)c(C(c3ccc(F)cc3)c3sc(N(CCC(=O)O)c4ccc(C(C)=O)cc4)nc3-c3ccccc3)s2)cc1 [Compound 14, 3,3′-/{[(4-Fluorophenyl)methylene]bis(4-phenylthiazole-5,2-diyl)}bis[(4 acetylphenyl)azanediyl]/dipropionic acid] | 47.8 | – | – | – |
| C/C(=N/O)c1ccc(N(CCC(=O)O)c2nc(-c3ccccc3)cs2)cc1 [Compound 21, 3-/{4-[1-(Hydroxyimino)ethyl]phenyl}(4-phenylthiazol-2-yl)amino/propanoic acid] | 35.3 | 14.6 | 5.42 | viability at 100 µM [4]: 18.3%; viability at 100 µM [5]: 23.5%; LDH release (cytotoxicity) [6]: 66.7%; spheroid morphology and cell viability by AO/PI staining [7]: partial cell death |
| C/C(=N/O)c1ccc(N(CCC(=O)O)c2nc(-c3ccc(Cl)cc3)cs2)cc1 [Compound 22, 3-/[4-(4-Chlorophenyl)thiazol-2-yl]{4-[1-(hydroxyimino)ethyl]phenyl}amino/propanoic acid] | 37.6 | 38 | 2.47 | viability at 100 µM [4]: 33.9%; viability at 100 µM [5]: 26.6%; LDH release (cytotoxicity) [6]: 40.6%; spheroid morphology and cell viability by AO/PI staining [7]: partial cell death |
| COC(=O)CCN(c1ccc(/C(C)=N\O)cc1)c1nc(-c2ccccc2)cs1 [Compound 23, Methyl 3-/{4-[1-(hydroxyimino)ethyl]phenyl}(4-phenylthiazol-2-yl)amino/propanoate] | 41.9 | – | – | – |
| COC(=O)CCN(c1ccc(/C(C)=N\O)cc1)c1nc(-c2ccc(Cl)cc2)cs1 [Compound 24, Methyl 3-/[4-(4-chlorophenyl)thiazol-2-yl]{4-[1-(hydroxyimino)ethyl]phenyl}amino/propanoate] | 77.7 | – | – | – |
| C/C(=N/O)c1ccc(N(CCC(=O)NN)c2nc(-c3ccccc3)cs2)cc1 [Compound 25, 3-/{4-[1-(Hydroxyimino)ethyl]phenyl}(4-phenylthiazol-2-yl)amino/propanehydrazide] | 25 | 10.7 | 8.05 | viability at 100 µM [4]: 27.7%; viability at 100 µM [5]: 48.4%; LDH release (cytotoxicity) [6]: 72.1%; spheroid morphology and cell viability by AO/PI staining [7]: substantial disruption of spheroid architecture and widespread PI-positive staining |
| C/C(=N/O)c1ccc(N(CCC(=O)NN)c2nc(-c3ccc(Cl)cc3)cs2)cc1 [Compound 26, 3-/[4-(4-Chlorophenyl)thiazol-2-yl]{4-[1-(hydroxyimino)ethyl]phenyl}amino/propanehydrazide] | 30.5 | 13.8 | 25.4 | viability at 100 µM [4]: 67%; viability at 100 µM [5]: 15.4%; LDH release (cytotoxicity) [6]: 89.9%; spheroid morphology and cell viability by AO/PI staining [7]: substantial disruption of spheroid architecture and widespread PI-positive staining |
| CC(=NNc1ccccc1)c1ccc(N(CCC(=O)O)c2nc(-c3ccccc3)cs2)cc1 [Compound 27, 3-/{4-[1-(2-Phenylhydrazineylidene)ethyl]phenyl}(4-phenylthiazol-2-yl)amino/propanoic acid] | – | – | – | A549 cell viability [1]: 82.4–100% |
| CC(=NNc1ccccc1)c1ccc(N(CCC(=O)O)c2nc(-c3ccc(Cl)cc3)cs2)cc1 [Compound 28, 3-/[4-(4-Chlorophenyl)thiazol-2-yl]{4-[1-(2-phenylhydrazineylidene)ethyl]phenyl}amino/propanoic acid] | – | – | – | A549 cell viability [1]: 82.4–100% |
| COC(=O)CCN(c1ccc(C(C)=O)cc1)c1nc(-c2ccccc2)cs1 [Compound 29, Methyl 3-[(4-acetylphenyl)(4-phenylthiazol-2-yl)amino]propanoate] | 82.4 to 100 | – | – | – |
| COC(=O)CCN(c1ccc(C(C)=O)cc1)c1nc(-c2ccc(Cl)cc2)cs1 [Compound 30, Methyl 3-{(4-acetylphenyl)[4-(4-chlorophenyl)thiazol-2-yl]amino}propanoate] | 82.4 to 100 | – | – | – |
| CC(=NN)c1ccc(N(CCC(=O)NN)c2nc(-c3ccccc3)cs2)cc1 [Compound 31, 3-{[4-(1-Hydrazineylideneethyl)phenyl](4-phenylthiazol-2-yl)amino}propanehydrazide] | 67.1 | – | – | – |
| CC(=NN)c1ccc(N(CCC(=O)NN)c2nc(-c3ccc(Cl)cc3)cs2)cc1 [Compound 32, 3-{[4-(4-Chlorophenyl)thiazol-2-yl][4-(1-hydrazineylideneethyl)phenyl]amino}propanehydrazide] | 84 | – | – | – |
| COc1cccc2c1C(=O)c1c(O)c3c(c(O)c1C2=O)C[C@@](O)(C(=O)CO)C[C@@H]3O[C@H]1C[C@H](N)[C@H](O)[C@H](C)O1 [DOX, doxorubicin, reference compound] | – | 3.82 | 3.02 | – |

Reference: article PMC12115147, “Identification of 3-[(4-Acetylphenyl)(4-Phenylthiazol-2-Yl)Amino]Propanoic Acid Derivatives as Promising Scaffolds for the Development of Novel Anticancer Candidates Targeting SIRT2 and EGFR” (Pharmaceuticals, 2025)
